Patent US20260256881A1, “COMPOSITIONS COMPRISING PEDF-DERIVED SHORT PEPTIDES FOR THE TREATMENT OF NEUROTROPHIC KERATITIS DISEASES” (BRIM Biotechnology, Inc., priority 2022, published 2026)

Columns and labels:
Format in all cases: in vivo
[1] = test system: NK model in Chinchilla rabbits (ophthalmic branch (V1) of trigeminal nerve injured with sodium hydroxide); assay: Schirmer test for tear production, NK rabbit model; conditions: for Schirmer Test: X ± SEM, n = 8
Description: (§1) The NK model is established in Chinchilla rabbits by using a chemical method to destroy the ophthalmic branch (V1) of trigeminal nerve to induce NK. Briefly, animals were anesthetized. […] The trigeminal nerve was carefully separated from surrounding fasciae, and the ophthalmic nerve (V1) of trigeminal nerve was isolated and injured with sodium hydroxide solution. The V1 injury was performed for unilateral eye in each animal for 5 days prior to treatment.
(§2) A total of 16 animals were assigned randomly into two groups based on corneal ulcer areas at Day 1 prior to the treatments, and the animals received either BRM424 ophthalmic solution (OS containing 0.03% BRM424; TA-1 group) or Vehicle (TA-2 group) in the surgical eye three times daily (TID, eye drops) for 28 days. During the study period, the corneal ulcer areas, corneal fluorescein staining, corneal sensitivity, Schirmer test, and Tear film break-up time (TFBUT) at baseline (Day 0), Day 4, Day 8, Day 15, Day 22, and Day 29 were measured.
However, the tear volumes of the TA-1 group at Day 29 were about 2-fold higher than that at Day 0.

[2] = test system: NK model in Chinchilla rabbits (ophthalmic branch (V1) of trigeminal nerve injured with sodium hydroxide); assay: Central corneal sensitivity with Von Frey filaments, NK rabbit model; conditions: for Corneal Sensitivity, Contact force (Nylon size) / Corneal Sensitivity, Contact force: X ± SEM, n = 8
Description: as §1, §2
Central corneal sensitivity was monitored using Von Frey filaments. Various forces of calibrated Von Frey filaments (0.008-300 g) were applied to the center of the cornea surface of immobilized animal. The mechanical threshold response was determined by assessing treated-eye blinking response evoked by the same calibrated Von Frey filaments twice out of three times. FIG. 4A and FIG. 4B show results for corneal sensitivity tests. Prior to the dose administration (Day 0), there was no corneal reflex in all animals, even when using the coarsest nylon filament (Force 0.008-300 g).

[3] = test system: NK model in Chinchilla rabbits (ophthalmic branch (V1) of trigeminal nerve injured with sodium hydroxide); assay: Corneal ulceration area, slit-lamp with cobalt blue light, NK rabbit model; conditions: for Corneal Ulceration Area: X ± SEM, n = 8
Description: as §1, §2
Corneal ulceration areas were measured from images taken during slit-lamp examination with cobalt blue light. […] At Day 0, the corneal ulceration areas were 25.98±1.88 mm^2 for the TA-1 group and 27.65±2.66 mm^2 for the TA-2 group, and these areas were reduced to 7.80±1.45 mm^2 and 13.30±2.36 mm^2 by Day 8 for the TA-1 group and TA-2 group, respectively.

[4] = test system: NK model in Chinchilla rabbits (ophthalmic branch (V1) of trigeminal nerve injured with sodium hydroxide); assay: Corneal fluorescein staining (FL score), NK rabbit model; design: Fluorescein Staining Score: scale not given here; conditions: for Fluorescein Staining Score: X ± SEM, n = 8
Description: as §1, §2
Cornea damage may be assessed using corneal fluorescein staining. […] The mean value of corneal fluorescein sodium staining scores at Day 0 was 3.62±0.18 for both the TA-1 and TA-2 groups and fell below 3 (TA-1=1.38±0.18, TA-2=2.36±0.42) by Day 8, indicating a quick onset of action. […] The fluorescein staining score of the TA-1 group reached 1 by Day 29.

[5] = test system: NK model in Chinchilla rabbits (ophthalmic branch (V1) of trigeminal nerve injured with sodium hydroxide); assay: Tear film break-up time (TFBUT), NK rabbit model; conditions: for TFBUT: X ± SEM, n = 8
Description: as §1, §2

[6] = Day 0 (baseline, prior to treatment)
[7] = Day 4, 0.03% BRM424 ophthalmic solution TID
[8] = Day 8, 0.03% BRM424 ophthalmic solution TID
[9] = Day 15, 0.03% BRM424 ophthalmic solution TID
[10] = Day 22, 0.03% BRM424 ophthalmic solution TID
[11] = Day 29, 0.03% BRM424 ophthalmic solution TID
[12] = after 29 days of topical dose administrations
[13] = Day 0 (baseline, prior to treatment), listed as TA-1

In the case of “SLGAEQRTESIIHRALYYDLISSPDIHGT (ophthalmic solution 0.03%; listed as Homo sapiens) [BRM424, PEDF-derived short peptide (PDSP), residues 93-121 of PEDF]”, the “Schirmer Test” value [1, 6] was 5.63 ± 0.71 mm, the “Schirmer Test” value [1, 7] was 6.00 ± 0.93 mm and the “Schirmer Test” value [1, 8] was 5.50 ± 1.02 mm. The “Schirmer Test” value [1, 9] was 6.38 ± 0.86 mm, the “Schirmer Test” value [1, 10] was 6.50 ± 1.24 mm and the “Schirmer Test” value [1, 11] was 10.75 ± 1.59 mm. For the same sequence, the “Tear volumes at Day 29 relative to Day 0” value ([1]; Day 29 vs Day 0, same group) was “about 2 fold”, the “Tear volumes, difference between TA-1 and TA-2 (vehicle) groups” value [1, 12] was “no significant difference” and the “Corneal Sensitivity, Contact force (Nylon size)” value ([2]; Day 0 (baseline, prior to treatment), Von Frey filament that triggered corneal reflex) was 6.65 ± 0.00. The “Corneal Sensitivity, Contact force” value ([2]; Day 0 (baseline, prior to treatment), force that triggered corneal reflex) was 300.00 ± 0.00 g, the “Corneal Sensitivity, Contact force” value [2, 7] was 300.00 ± 0.00 g and the “Corneal Sensitivity, Contact force (Nylon size)” value [2, 7] was 6.65 ± 0.00. The “Corneal Sensitivity, Contact force” value [2, 8] was 300.00 ± 0.00 g, the “Corneal Sensitivity, Contact force (Nylon size)” value [2, 8] was 6.65 ± 0.00 and the “Corneal Sensitivity, Contact force” value [2, 9] was 235.75 ± 42.18 g. For the same sequence, the “Corneal Sensitivity, Contact force (Nylon size)” value [2, 9] was 6.41 ± 0.16, the “Corneal Sensitivity, Contact force” value [2, 10] was 300.00 ± 0.00 g and the “Corneal Sensitivity, Contact force (Nylon size)” value [2, 10] was 6.65 ± 0.00. For the same sequence, the “Corneal Sensitivity, Contact force” value [2, 11] was 189.75 ± 53.80 g, the “Corneal Sensitivity, Contact force (Nylon size)” value [2, 11] was 5.93 ± 0.35 and the “Corneal sensation recovery compared with vehicle (TA-2) group” value ([2]; after 29 days of treatments) was “recovered faster with better improvement than the TA-2 group”. For the same sequence, the “Corneal Ulceration Area” value [3, 6] was 25.98 ± 1.88 mm^2, the “Corneal Ulceration Area” value [3, 13] was 25.98±1.88 mm^2 and the “Corneal Ulceration Area” value ([3]; Day 4, 0.03% BRM424 ophthalmic solution, eye drops TID, surgical eye) was 13.63 ± 2.51 mm^2. The “Corneal ulceration area reduction compared with vehicle (TA-2) group” value ([3]; Day 8, Day 15 and Day 29, p<0.05) was “more than that of TA-2 group”, the “Corneal Ulceration Area” value ([3]; Day 8, 0.03% BRM424 ophthalmic solution, eye drops TID, surgical eye) was 7.80 ± 1.45 mm^2 and the “Corneal Ulceration Area” value ([3]; Day 8, 0.03% BRM424 ophthalmic solution, eye drops TID, surgical eye, listed as TA-1) was 7.80±1.45 mm^2. The “Corneal Ulceration Area” value ([3]; Day 15, 0.03% BRM424 ophthalmic solution, eye drops TID, surgical eye) was 9.93 ± 2.46 mm^2, the “Corneal Ulceration Area” value ([3]; Day 22, 0.03% BRM424 ophthalmic solution, eye drops TID, surgical eye) was 7.29 ± 2.11 mm^2 and the “Corneal Ulceration Area” value ([3]; Day 29, 0.03% BRM424 ophthalmic solution, eye drops TID, surgical eye) was 4.81 ± 1.44 mm^2. For the same sequence, the “Fluorescein Staining Score” value [4, 6] was 3.62 ± 0.18, the “Fluorescein Staining Score” value [4, 13] was 3.62±0.18 and the “Fluorescein Staining Score” value ([4]; Day 4, 0.03% BRM424 ophthalmic solution, eye drops TID) was 2.00 ± 0.38. The “Fluorescein Staining Score” value ([4]; Day 8, 0.03% BRM424 ophthalmic solution, eye drops TID) was 1.38 ± 0.18, the “Fluorescein Staining Score” value ([4]; Day 8, 0.03% BRM424 ophthalmic solution, eye drops TID, listed as TA-1) was 1.38±0.18 and the “Fluorescein staining score, difference between TA-1 and TA-2 (vehicle) groups” value ([4]; Day 8 and Day 15, P<0.05) was “Significant difference”. The “Fluorescein Staining Score” value ([4]; Day 15, 0.03% BRM424 ophthalmic solution, eye drops TID) was 1.63 ± 0.36, the “Fluorescein Staining Score” value ([4]; Day 22, 0.03% BRM424 ophthalmic solution, eye drops TID) was 1.25 ± 0.16 and the “Fluorescein Staining Score” value ([4]; Day 29, 0.03% BRM424 ophthalmic solution, eye drops TID) was 1.00 ± 0.19. For the same sequence, the “Fluorescein Staining Score” value ([4]; Day 29, 0.03% BRM424 ophthalmic solution, eye drops TID, listed as TA-1) was 1, the TFBUT [5, 6] was 5.50 ± 0.33 s and the TFBUT [5, 7] was 4.88 ± 0.48 s. For the same sequence, the TFBUT [5, 8] was 6.75 ± 0.45 s, the TFBUT [5, 9] was 5.13 ± 0.55 s and the TFBUT [5, 10] was 4.38 ± 0.32 s. The TFBUT [5, 11] was 5.38 ± 0.32 s and the “TFBUT, difference between TA-1 and TA-2 (vehicle) groups” value [5, 12] was “no significant difference”.
